How the values were obtained:
[1] = test system: Fibroblasts derived from a human being; experiment: Effect on cell damage caused by UV-rays irradiation (colony formation); type: cell-based; settings: 100 mM melatonin in phosphate buffer, vs system without melatonin, p < 0.01, Fig. 1
Protocol: Fibroblasts derived from a human being were seeded in a laboratory dish having a diameter of 6 cm, at 400 cells/laboratory dish, and were cultured in Eagle's MEM medium containing 10% fetal calf serum in an incubator at 5% CO₂ , at 37°C for 24 hours. After the medium was exchanged with a phosphate buffer containing 100 mM of melatonin (SIGMA Co.), it was irradiated by UVB (Toshiba FL-SE 20W) at 50 mJ/cm² or 100 mJ/cm², followed by a further culturing for 6 days. The culture was fixed with a 10% neutral formalin, stained with a 30-fold Gimza solution, and the colonies per laboratory dish were counted. The colonies of the irradiated group were divided by the colonies of the non-irradiated group, to measure the colony formation ratio. As a Control, a phosphate buffer containing no melatonin was added. In Fig. 1, (a) is the system containing no melatonin and (b) is the system containing 100 mM of melatonin. […] The risk ratio p becomes statistically significant at p < 0.05. Accordingly, it can be seen that melatonin has a protective effect against cell damage caused by UV-rays irradiation.

tumors = settings: cited from earlier work
hairless mice = type: in vivo, albino hairless mice
Protocol: Male albino hairless mice 8 weeks old (strain derived from Skh-HR-1, weight 25 - 35 g) were used, and one group consisted of 12 to 14 mice.
Melatonin (SIGMA Co.) was used as a suspension in 20% ethanol containing physiological saline, and administered by an intraperitoneal injection of 0.1 ml in doses at 3 levels of 0 mg, 1 mg, and 10 mg per day.
A Toshiba FL20-SE was mounted in a cage for irradiation, and irradiation was carried out at an irradiation intensity of 0.94 mW/cm², for 8 minutes per day, three times per week on alternate days for weeks. The irradiation was carried out 57 times, and the total irradiation dose was 25.7 J/cm². The administration of the sample was commenced simultaneously with the UV rays irradiation, and after the completion of the UV rays irradiation, the sample was administered continuously for an additional 10 weeks.
The size of the tumor generated was measured with slide calipers.
A t-examination was practiced for the number of tumors with sizes of 5 mm or more per one individual, and the number of tumors generated with sizes of 5 mm or more is shown in Fig. 2.

## COc1ccc2[nH]cc(CCNC(C)=O)c2c1 [melatonin, N-acetyl-5-methoxytryptamine]
[1]; UVB 50 mJ/cm²
  colony formation ratio: significantly higher colony formation ratio
[1]; UVB 100 mJ/cm²
  colony formation ratio: significantly higher colony formation ratio
tumors; experimental leukemia, sarcoma, mammary tumors (literature reports)
  proliferation of tumors: suppressing of a proliferation of tumors
tumors; mammary tumors (Hamilton, 1969) or lung cancer (Lapin and Ebels, 1976)
  course of tumors: tumors were worsened
Hairless mice; group administered with 10 mg of melatonin per day, intraperitoneal
  protective effect against skin cancer: a protective effect against skin cancer was seen
Hairless mice; melatonin administered group (1 mg or 10 mg per day, intraperitoneal), UV irradiated, p < 0.05 on 23 days and 26 days and thereafter, Fig. 2
  generation and proliferation of tumors (number of tumors generated with sizes of 5 mm or more per one mouse): significantly suppressed
